From ChEMBL document CHEMBL1201862, “PubChem BioAssay data set” (2004)
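Results reflect a 48-hour exposure of cells in 96-well plates to compound at five concentrations. GI50: concentration for 50% inhibition of growth.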 Active and inactive are the calls of the source. Rule as the data show it: active = GI50 up to about 1.1 µM and inactive = higher.

Experiments:
Test in all cases: inhibition of tumour cell growth, NCI panel, 48 h
BT-549 = system: BT-549
M19-MEL = system: M19-MEL
HOP-18 = system: HOP-18
KM-20L2 = system: KM-20L2
SNB-78 = system: SNB-78
DMS-114 = system: DMS-114
LXFL 529 = system: LXFL 529
XF498 = system: XF498
RXF 631 = system: RXF 631

Compound	GI50 (BT-549)	GI50 (M19-MEL)	GI50 (KM-20L2)	GI50 (SNB-78)	GI50 (DMS-114)	GI50 (LXFL 529)	other results
CN(C)CCn1c2c(c3ccccc31)CCc1ccccc1-2	14.5 µM (inactive)	–	–	–	–	–	–
Cc1c2cc[n+](C)c(C)c2cc2c1[nH]c1ccccc12	2.44 µM (inactive)	3.44 µM (inactive)	4.99 µM (inactive)	5.05 µM (inactive)	1.57 µM (inactive)	–	GI50 (HOP-18): 0.586 µM (active)
CC(=O)OCc1cc(OC(C)=O)c2cc3c(OC(C)=O)cccc3c(OC(C)=O)c2c1	20.1 µM (inactive)	–	–	–	–	–	–
c1sc(NC2=NCCO2)c2c1CCCC2	> 100 µM (inactive)	–	–	–	–	–	–
Nc1nc(N)c2ncn(CCCC(c3ccccc3)P(=O)(O)O)c2n1 (centres undefined)	–	> 100 µM (inactive)	> 100 µM (inactive)	> 100 µM (inactive)	> 100 µM (inactive)	> 100 µM (inactive)	GI50 (HOP-18): > 100 µM (inactive)
CCOC(=O)C1=C(C)N(NC(N)=O)C2(N)N(NC(N)=O)C(C)=C(C(=O)OCC)C12C(=O)OCC (centres undefined)	–	> 100 µM (inactive)	> 100 µM (inactive)	–	> 100 µM (inactive)	> 100 µM (inactive)	GI50 (XF498): > 100 µM (inactive)
C=CCc1cc(-c2cc(CC=C)c(O)c(CN(CC)CC)c2)cc(CN(CC)CC)c1O	> 49.2 µM (inactive)	18.3 µM (inactive)	14.5 µM (inactive)	> 100 µM (inactive)	> 52.6 µM (inactive)	46.6 µM (inactive)	GI50 (RXF 631): 14.6 µM (inactive); GI50 (HOP-18): > 100 µM (inactive)
COc1ccccc1C1SCC(=O)N1c1ccc(-n2c(-c3ccccc3)nc3ccccc3c2=O)cc1 (centres undefined)	> 100 µM (inactive)	–	–	–	–	–	–
N#CCCN(CCC#N)c1ccc(/C=C2\N=C(c3ccccc3)N(c3ccc(Cl)cc3)C2=O)cc1	> 100 µM (inactive)	–	–	–	–	–	–
Cc1cc(=O)nc(Sc2ccc([N+](=O)[O-])cc2[N+](=O)[O-])[nH]1	12.8 µM (inactive)	–	–	–	–	–	–
CCOC(=O)C1=C(C)C2C=C(c3cccs3)CC(c3ccc(Cl)cc3)=C2OC1=O (centres undefined)	31.5 µM (inactive)	–	–	–	–	–	–
CC(C)(NC(=O)OCc1ccccc1)C(=O)OC(=O)C(C)(C)NC(=O)OCc1ccccc1	> 100 µM (inactive)	–	–	–	–	–	–
CC[C@@H]1CSC(/C=C/C2OC3OC(C)(C)OC3C3OC(C)(C)OC23)=N1 (some centres undefined)	3.58 µM (inactive)	–	–	–	–	–	–
O=C(O)CNC(=O)c1c2ccccc2nc2ccccc12	20.8 µM (inactive)	–	–	–	–	–	–
CC(=O)O[C@H]1C(=O)[C@@]2(C)[C@H]([C@H](OC(=O)c3ccccc3)[C@]3(O)C[C@H](OC(=O)[C@H](O)[C@@H](NC(=O)c4ccccc4)c4ccccc4)C(C)=C1C3(C)C)[C@]1(OC(C)=O)CO[C@@H]1C[C@@H]2O [PACLITAXEL]	0.0327 µM (active)	–	–	0.00982 µM (active)	–	0.528 µM (active)	GI50 (XF498): 0.00348 µM (active); GI50 (HOP-18): 0.157 µM (active)
Cc1cc(N(CCC#N)S(=O)(=O)c2ccccc2)ccc1/C=C1N=C(/C=C/c2ccccc2)OC\1=O	–	–	> 100 µM (inactive)	80.5 µM (inactive)	94.4 µM (inactive)	87.3 µM (inactive)	GI50 (XF498): > 100 µM (inactive)
O=C(c1ccncc1)C1C(=O)c2ccccc2C1C1(O)c2ccccc2CC1C(O)c1ccncc1 (centres undefined)	45.9 µM (inactive)	–	–	–	–	–	–
COC(=O)C1=C(C(=O)OC)SC2(S1)C(C(=O)OC)=C(C(=O)OC)Sc1c2ssc1=O	1.5 µM (inactive)	–	–	–	–	–	–
c1ccc2nn(C3CCCO3)nc2c1 (centres undefined)	> 100 µM (inactive)	–	–	–	–	–	–

Compound	GI50 (BT-549)	GI50 (M19-MEL)	GI50 (KM-20L2)	GI50 (SNB-78)	GI50 (DMS-114)	GI50 (LXFL 529)	other results
COc1ccc(/N=N/C(=O)NC(Cc2ccccc2)C(=O)O)cc1 (centres undefined)	> 100 µM (inactive)	–	–	–	–	–	–
O=P(Nc1ccccc1)(Oc1ccccc1)N1CCN(c2ccccc2)CC1 (centres undefined)	16 µM (inactive)	–	–	–	–	–	–
COc1ccc(/N=N/C(=O)NC(CC(C)C)C(=O)NC(Cc2ccccc2)C(=O)O)cc1 (centres undefined)	> 100 µM (inactive)	–	–	–	–	–	–
COc1ccc(C(O)c2ccc3c(c2)OCO3)cc1 (centres undefined)	> 100 µM (inactive)	–	–	–	–	–	–
O=C(COc1ccc(OCC(=O)N/N=C/c2ccc(-c3ccc(Cl)cc3Cl)o2)c(Cl)c1)N/N=C/c1ccc(-c2ccc(Cl)cc2Cl)o1	83.9 µM (inactive)	–	–	–	–	–	–
C/C(=N\NC(=O)C[n+]1ccccc1)c1sc(-c2nc(C)c(/C(C)=N/NC(=O)C[n+]3ccccc3)s2)nc1C	–	> 100 µM (inactive)	> 100 µM (inactive)	> 100 µM (inactive)	38.3 µM (inactive)	95.9 µM (inactive)	–
CCCCCCCCCCCCCC(=O)OCC1OC(=O)CC1O (centres undefined)	–	–	> 100 µM (inactive)	56.1 µM (inactive)	49.4 µM (inactive)	> 100 µM (inactive)	GI50 (RXF 631): > 100 µM (inactive); GI50 (XF498): > 100 µM (inactive); GI50 (HOP-18): 0.437 µM (active)
O=C1C(Br)=C(C2=CC(=P(c3ccccc3)(c3ccccc3)c3ccccc3)C=C2)C(=O)C(Br)=C1C1=CC(=P(c2ccccc2)(c2ccccc2)c2ccccc2)C=C1	> 100 µM (inactive)	–	–	–	–	–	–
CN1CCCCC1CCN1c2ccccc2Sc2ccc([S+](C)[O-])cc21 (centres undefined) [MESORIDAZINE]	> 100 µM (inactive)	–	–	–	–	–	–
O=C(CCCN1CCC(Nc2ccc(F)cc2)(c2nnnn2C2CCCCC2)CC1)c1ccc(F)cc1	16.5 µM (inactive)	–	–	–	–	–	–
Cc1ccc2c(c1)OC1Nc3ccccc3C1=C2O (centres undefined)	19.7 µM (inactive)	–	–	–	–	–	–
CCC1c2[nH]c3ccccc3c2C[C@H]2C(=O)NC(CCC(=O)OC(C)(C)C)C(=O)N12 (some centres undefined)	53.3 µM (inactive)	–	–	–	–	–	–
Cc1cnc(NCCCN(C)C)c2c1[nH]c1ccc3cc(O)ccc3c12	1.52 µM (inactive)	0.383 µM (active)	0.266 µM (active)	0.929 µM (active)	0.0962 µM (active)	0.142 µM (active)	GI50 (XF498): 0.222 µM (active); GI50 (HOP-18): 1.43 µM (inactive)
CCOC(=O)C1(Cc2ccccc2)CCCCCN1 (centres undefined)	–	> 100 µM (inactive)	> 100 µM (inactive)	> 100 µM (inactive)	> 100 µM (inactive)	> 100 µM (inactive)	GI50 (RXF 631): > 100 µM (inactive); GI50 (HOP-18): > 100 µM (inactive)
CC(=O)NNc1nc(C)c(C(=O)NNC(=O)C(=O)Nc2ccc(C)cc2[N+](=O)[O-])s1	–	60.4 µM (inactive)	> 100 µM (inactive)	> 100 µM (inactive)	> 100 µM (inactive)	> 100 µM (inactive)	GI50 (RXF 631): > 100 µM (inactive); GI50 (HOP-18): > 100 µM (inactive)
C=C1CC2(CC(c3ccccc3OC)OC(c3ccccc3OC)C2)OC1=O (centres undefined)	1.64 µM (inactive)	–	–	–	–	–	–
CC(C)C12C=CC(C)(CC1)n1c(=O)c3cc4ccccc4cc3c(=O)n12 (centres undefined)	–	66.8 µM (inactive)	31.7 µM (inactive)	> 100 µM (inactive)	41.9 µM (inactive)	34 µM (inactive)	GI50 (RXF 631): 54.3 µM (inactive); GI50 (XF498): 26.4 µM (inactive)
C=CCN1CCC(c2cc(C(=O)OCC)[nH]c2-c2cc(C)no2)C1=O (centres undefined)	> 100 µM (inactive)	–	–	–	–	–	–
CC1(C)CC2=NC(SSC3=C(C#N)C(c4ccc(Br)cc4)C4=C(O)CC(C)(C)CC4=N3)=C(C#N)C(c3ccc(Br)cc3)C2=C(O)C1 (centres undefined)	> 100 µM (inactive)	–	–	–	–	–	–

Compound	GI50 (BT-549)	GI50 (M19-MEL)	GI50 (KM-20L2)	GI50 (SNB-78)	GI50 (DMS-114)	GI50 (LXFL 529)	other results
NNC(=O)c1nnn(CCc2ccccc2)c1C(=O)NN	> 100 µM (inactive)	–	–	–	–	–	–
CC(N/N=N/c1ccc(-c2nc3ccccc3[nH]2)cc1)C(=O)O (centres undefined)	3.73 µM (inactive)	–	–	–	–	–	–
N#Cc1c(-c2ccccc2)c(/C=N/c2ccc(Cl)cc2)c(=O)n2c1[nH]c1ccccc12	> 100 µM (inactive)	–	–	–	–	–	–
CC(C)=C1C(=O)C[C@]2(C)C/C=C(\C)CC/C=C(\C)CC[C@@H]12	10.9 µM (inactive)	–	–	–	–	–	–
Oc1cc(-c2ccc[nH]2)nc2cc3c(cc12)OCO3	–	39 µM (inactive)	–	–	–	28.4 µM (inactive)	GI50 (RXF 631): 47.5 µM (inactive); GI50 (XF498): 21.1 µM (inactive)
O=[N+]([O-])c1nccn1COCCBr	–	> 100 µM (inactive)	> 100 µM (inactive)	–	> 100 µM (inactive)	> 100 µM (inactive)	GI50 (XF498): > 100 µM (inactive)
CCN1CC2=C(NC(=S)NC2c2ccc(Cl)cc2)/C(=C/c2ccc(Cl)cc2)C1 (centres undefined)	> 100 µM (inactive)	–	–	–	–	–	–
CC(C)c1ccccc1NC(=O)/C(Cl)=C1/Sc2ccccc2NC1=O	–	34 µM (inactive)	24.2 µM (inactive)	30.5 µM (inactive)	18.5 µM (inactive)	14.5 µM (inactive)	GI50 (RXF 631): 34 µM (inactive)
Cc1cccc2c1C(=O)OC2(C)c1cccc2ccccc12 (centres undefined)	–	50 µM (inactive)	24.4 µM (inactive)	73.6 µM (inactive)	43.1 µM (inactive)	–	GI50 (XF498): 4.86 µM (inactive); GI50 (HOP-18): > 100 µM (inactive)
C=C(C)C12CC3CC/C(=N/O)C(C1)C3(N1CCOCC1)C/C2=N/O (centres undefined)	> 100 µM (inactive)	–	–	–	–	–	–
CCOC(=O)CSc1nc2ccccc2c(=O)n1N	> 100 µM (inactive)	–	–	–	–	–	–
COc1ccc(/C=C2\C(=O)N(C(=O)c3ccc(NC(C)=O)cc3)N=C2C)cc1OC	–	> 100 µM (inactive)	–	> 100 µM (inactive)	> 100 µM (inactive)	–	GI50 (XF498): > 100 µM (inactive); GI50 (HOP-18): 14.6 µM (inactive)
CC1(CO)OC1COCc1ccccc1 (centres undefined)	–	–	> 100 µM (inactive)	> 100 µM (inactive)	> 100 µM (inactive)	> 100 µM (inactive)	GI50 (RXF 631): > 100 µM (inactive); GI50 (XF498): > 100 µM (inactive)
S=c1sc2c(Cl)nc(Cl)nc2n1-c1ccccc1	–	16.4 µM (inactive)	52.6 µM (inactive)	13.3 µM (inactive)	14.2 µM (inactive)	17.9 µM (inactive)	GI50 (XF498): 94.2 µM (inactive); GI50 (HOP-18): > 100 µM (inactive)
CCCCCCCCCCCCCCCC(=O)OCC1OC(n2cc(F)c(=O)[nH]c2=O)C(NC(=O)N(CCCl)N=O)C(O)C1O (centres undefined)	–	2.82 µM (inactive)	5.15 µM (inactive)	3.85 µM (inactive)	1.12 µM (inactive)	5.3 µM (inactive)	GI50 (RXF 631): 3.08 µM (inactive); GI50 (HOP-18): 16.4 µM (inactive)
CCCCC(C(=O)CCC(=O)Nc1ccc(Cl)c(Cl)c1)C(=O)C(C)C (centres undefined)	–	> 100 µM (inactive)	> 100 µM (inactive)	> 100 µM (inactive)	> 100 µM (inactive)	34.8 µM (inactive)	GI50 (HOP-18): > 100 µM (inactive)
O=C(NC12CC3CC(CC(C3)C1)C2)C(=O)c1c[nH]c2ccc([N+](=O)[O-])cc12	–	60 µM (inactive)	36.5 µM (inactive)	–	43.9 µM (inactive)	20.2 µM (inactive)	GI50 (XF498): 18.2 µM (inactive); GI50 (HOP-18): 28.6 µM (inactive)
COC1C(OC(C)=O)CC(=O)OC(C)C/C=C/C=C\C(O)C(C)CC(CC=O)C1OC1OC(C)C(OC2CC(C)(O)C(OC(=O)CC(C)C)C(C)O2)C(N(C)C)C1O (centres undefined)	> 100 µM (inactive)	–	–	–	–	–	–
Nc1ncc(CN2CCCC2)c(-c2ccccc2O)n1	–	> 750 µM (inactive)	> 750 µM (inactive)	–	> 750 µM (inactive)	> 750 µM (inactive)	GI50 (XF498): > 750 µM (inactive); GI50 (HOP-18): 433 µM (inactive)
